Laboratory results as given in patent publication US10246425B2, “3,5-diamino-6-chloro-N-(N-(4-phenylbutyl)carbamimidoyl) pyrazine-2-carboxamide compounds” (Parion Sciences, Inc., priority 2012, dated 2019).
Counter-ions that a name gives are not always drawn.

Experiments:
Primary CBE cells = experiment: Airway hydration and sodium channel block (in vitro model): surface liquid retention; assay type: cell-based, canine; conditions: 50 μl buffer, 10 μM, 8 hours
Description: Assay 4. Airway Hydration and Sodium Channel Block (In Vitro Model)
Primary CBE cells are plated onto collagen-coated, porous membranes maintained at an air-liquid interface to assess maintenance of surface liquid volume over time. At the start of the experiment, each 12 mm snapwell insert was removed from the plate containing air-liquid interface culture media, blotted dry, weighed, and 50 μL of vehicle (0.1% DMSO), or ENaC blocker (10 μM in 0.1% DMSO) applied to the apical surface and the mass was recorded. The inserts were immediately returned to a transwell plate (500 μL, Krebs Ringer Bicarbonate (KRB), pH 7.4 in lower chamber) and placed in a 37° C., 5% CO2 incubator. To reduce artifact due to an apical carbohydrate osmotic gradient upon water loss, glucose was not included in the apical buffer. Compound (1a) was tested and compared to vehicle, and the mass of ASL was monitored serially from 0-8 or 24 h. The mass of surface liquid was converted to volume in μL. Data are reported as % initial volume (100%=50 μL).
The duration of sodium transport inhibition was determined indirectly by measuring the buffer retained after a 50 μl volume of experimental buffer was added to the apical surface of CBE cells.

[1] = tested on: human bronchial epithelial (HBE) cells; experiment: Airway surface liquid drug (ASL) clearance and metabolism by human airway epithelium; assay type: in vitro ADME; conditions: Table 4: HBE cells, 25 μL of 25 μM apical, 2 h, mean ± SD; for % of Initial Drug Mass on Apical Side (Parent and metabolite, 2 h): 37° C.
Description: Assay 3. Airway Surface Liquid Drug (ASL) Clearance and Metabolism by Human Airway Epithelium
(§1) The disappearance of Compound II-d from the apical surface and airway epithelial metabolism were assessed in human bronchial epithelial (HBE) cells (Table 3). In these experiments 25 μL of a 25 μM solution of ENaC blocker was added to the apical surface of HBE cells grown at an air/liquid interface, and the drug concentration in the apical and basolateral compartment was measured over 2 h by UPLC.
as §1, with “Therefore, the compounds of Formula (A) have a longer half-life on mucosal surfaces compared to these know compounds as evidenced by the data shown in Table 4. The” for “The”, “HBE and compared to Comparative Example 1” for “human bronchial epithelial (HBE) cells”, “4).” for “3).”

N=C(N)NC(=O)c1nc(Cl)c(N)nc1N [Amiloride, amiloride, reference compound]
surface liquid retained on apical surface (% initial volume) (Primary CBE cells): 25±19.2%

CCCCCCN(CCCN[C@@H](CCc1ccc(CCCCNC(=N)NC(=O)c2nc(Cl)c(N)nc2N)cc1)C(N)=O)C[C@H](O)[C@@H](O)[C@H](O)[C@H](O)CO [III-d, 3,5-diamino-N—(N-(4-(4-((S)-4-amino-3-(3-(hexyl((2S,3R,4R,5R)-2,3,4,5,6-pentahydroxyhexyl)amino)propylamino)-4-oxobutyl)phenyl)butyl)carbamimidoyl)-6-chloropyrazine-2-carboxamide]
% of Apical Mass as Metabolites (2 h) [1]: none | % of Initial Apical Mass on Basolateral Side (2 h) [1]: 3.5 ± 2.2% | % on Basolateral Side as Metabolites (2 h) [1]: None

CCCCCCN(CCCN[C@@H](Cc1ccc2cc(CCCCNC(=N)NC(=O)c3nc(Cl)c(N)nc3N)ccc2c1)C(N)=O)C[C@H](O)[C@@H](O)[C@H](O)[C@H](O)CO [IX-m, 3,5-diamino-N—(N-(4-(6-((S)-3-amino-2-(3-(hexyl((2S,3R,4R,5R)-2,3,4,5,6-pentahydroxyhexyl)amino)propylamino)-3-oxopropyl)naphthalen-2-yl)butyl)carbamimidoyl)-6-chloropyrazine-2-carboxamide]
% of Apical Mass as Metabolites (2 h) [1]: None | % of Initial Apical Mass on Basolateral Side (2 h) [1]: 1.1 ± 0.2% | % on Basolateral Side as Metabolites (2 h) [1]: None

Cl.N=C(NCCCCc1ccc(CC[C@H](NCCCN(C[C@H](O)[C@@H](O)[C@H](O)[C@H](O)CO)C[C@H](O)[C@@H](O)[C@H](O)[C@H](O)CO)C(N)=O)c2ccccc12)NC(=O)c1nc(Cl)c(N)nc1N [V-d, 3,5-diamino-N—(N-(4-(4-((S)-4-amino-3-(3-(bis((2S,3R,4R,5R)-2,3,4,5,6-pentahydroxyhexyl)amino)propylamino)-4-oxobutyl)naphthalen-1-yl)butyl)carbamimidoyl)-6-chloropyrazine-2-carboxamide hydrochloride]
% of Apical Mass as Metabolites (2 h) [1]: none | % of Initial Apical Mass on Basolateral Side (2 h) [1]: 9.3 ± 0.86% | % on Basolateral Side as Metabolites (2 h) [1]: None

CCCCCCN(CCCN[C@@H](CCc1ccc(CCCCNC(=N)NC(=O)c2nc(Cl)c(N)nc2N)c2ccccc12)C(N)=O)C[C@H](O)[C@@H](O)[C@H](O)[C@H](O)CO [VI-d, 3,5-diamino-N—(N-(4-(4-((S)-4-amino-3-(3-(hexyl((2S,3R,4R,5R)-2,3,4,5,6-pentahydroxyhexyl)amino)propylamino)-4-oxobutyl)naphthalen-1-yl)butyl)carbamimidoyl)-6-chloropyrazine-2-carboxamide hydrochloride]
% of Apical Mass as Metabolites (2 h) [1]: None | % of Initial Apical Mass on Basolateral Side (2 h) [1]: 1.2 ± 0.5% | % on Basolateral Side as Metabolites (2 h) [1]: None

N=C(NCCCCc1ccc(C[C@H](NCCCN(C[C@H](O)[C@@H](O)[C@H](O)[C@H](O)CO)C[C@H](O)[C@@H](O)[C@H](O)[C@H](O)CO)C(N)=O)c2ccccc12)NC(=O)c1nc(Cl)c(N)nc1N [VII-ee, 3,5-diamino-N—(N-(4-(4-((S)-3-amino-2-(3-(bis((2S,3R,4R,5R)-2,3,4,5,6-pentahydroxyhexyl)amino)propylamino)-3-oxopropyl)naphthalen-1-yl)butyl)carbamimidoyl)-6-chloropyrazine-2-carboxamide]
% of Apical Mass as Metabolites (2 h) [1]: None | % of Initial Apical Mass on Basolateral Side (2 h) [1]: 6.4 ± 2.1% | % on Basolateral Side as Metabolites (2 h) [1]: None

CCCCCCN(CCCN[C@@H](Cc1ccc(CCCCNC(=N)NC(=O)c2nc(Cl)c(N)nc2N)c2ccccc12)C(N)=O)C[C@H](O)[C@@H](O)[C@H](O)[C@H](O)CO [VIII-d, 3,5-diamino-N—(N-(4-(4-((S)-3-amino-2-(3-(hexyl((2S,3R,4R,5R)-2,3,4,5,6-pentahydroxyhexyl)amino)propylamino)-3-oxopropyl)naphthalen-1-yl)butyl)carbamimidoyl)-6-chloropyrazine-2-carboxamide]
% of Apical Mass as Metabolites (2 h) [1]: None | % of Initial Apical Mass on Basolateral Side (2 h) [1]: 2.0 ± 0.8% | % on Basolateral Side as Metabolites (2 h) [1]: None

N=C(NCCCCc1ccc2cc(C[C@H](NCCCN(C[C@H](O)[C@@H](O)[C@H](O)[C@H](O)CO)C[C@H](O)[C@@H](O)[C@H](O)[C@H](O)CO)C(N)=O)ccc2c1)NC(=O)c1nc(Cl)c(N)nc1N [X-d, 3,5-diamino-N—(N-(4-(6-((S)-3-amino-2-(3-(bis((2S,3R,4R,5R)-2,3,4,5,6-pentahydroxyhexyl)amino)propylamino)-3-oxopropyl)naphthalen-2-yl)butyl)carbamimidoyl)-6-chloropyrazine-2-carboxamide]
% of Apical Mass as Metabolites (2 h) [1]: None | % of Initial Apical Mass on Basolateral Side (2 h) [1]: 5.0 ± 3.3% | % on Basolateral Side as Metabolites (2 h) [1]: None

N=C(NCCCCc1ccc(C[C@H](NCCCN(C[C@H](O)[C@@H](O)[C@H](O)[C@H](O)CO)C[C@H](O)[C@@H](O)[C@H](O)[C@H](O)CO)C(N)=O)c2c1CCCC2)NC(=O)c1nc(Cl)c(N)nc1N [XI-cc, 3,5-diamino-N—(N-(4-(4-((S)-3-amino-2-(3-(bis((2S,3R,4R,5R)-2,3,4,5,6-pentahydroxyhexyl)amino)propylamino)-3-oxopropyl)-5,6,7,8-tetrahydronaphthalen-1-yl)butyl)carbamimidoyl)-6-chloropyrazine-2-carboxamide]
% of Apical Mass as Metabolites (2 h) [1]: None | % of Initial Apical Mass on Basolateral Side (2 h) [1]: 1.8 ± 0.3% | % on Basolateral Side as Metabolites (2 h) [1]: None

CCCCCCN(CCCN[C@@H](Cc1ccc(CCCCNC(=N)NC(=O)c2nc(Cl)c(N)nc2N)c2c1CCCC2)C(N)=O)C[C@H](O)[C@@H](O)[C@H](O)[C@H](O)CO [XII-d, 3,5-diamino-N—(N-(4-(4-((S)-3-amino-2-(3-(hexyl((2S,3R,4R,5R)-2,3,4,5,6-pentahydroxyhexyl)amino)propylamino)-3-oxopropyl)-5,6,7,8-tetrahydronaphthalen-1-yl)butyl)carbamimidoyl)-6-chloropyrazine-2-carboxamide]
% of Apical Mass as Metabolites (2 h) [1]: None | % of Initial Apical Mass on Basolateral Side (2 h) [1]: 9.6 ± 6.3% | % on Basolateral Side as Metabolites (2 h) [1]: None

N=C(NCCCCc1ccc2cc(CC[C@H](NCCCN(C[C@H](O)[C@@H](O)[C@H](O)[C@H](O)CO)C[C@H](O)[C@@H](O)[C@H](O)[C@H](O)CO)C(N)=O)ccc2c1)NC(=O)c1nc(Cl)c(N)nc1N [XIII-bb, 3,5-diamino-N—(N-(4-(6-((S)-4-amino-3-(3-(bis((2S,3R,4R,5R)-2,3,4,5,6-pentahydroxyhexyl)amino)propylamino)-4-oxobutyl)naphthalen-2-yl)butyl)carbamimidoyl)-6-chloropyrazine-2-carboxamide]
% of Apical Mass as Metabolites (2 h) [1]: None | % of Initial Apical Mass on Basolateral Side (2 h) [1]: 4.2 ± 1.9% | % on Basolateral Side as Metabolites (2 h) [1]: None

CCCCCCN(CCCN[C@@H](CCc1ccc2cc(CCCCNC(=N)NC(=O)c3nc(Cl)c(N)nc3N)ccc2c1)C(N)=O)C[C@H](O)[C@@H](O)[C@H](O)[C@H](O)CO [XIV-d, 3,5-diamino-N—(N-(4-(6-((S)-4-amino-3-(3-(hexyl((2S,3R,4R,5R)-2,3,4,5,6-pentahydroxyhexyl)amino)propylamino)-4-oxobutyl)naphthalen-2-yl)butyl)carbamimidoyl)-6-chloropyrazine-2-carboxamide]
% of Apical Mass as Metabolites (2 h) [1]: None | % of Initial Apical Mass on Basolateral Side (2 h) [1]: 0.32 ± 0.6% | % on Basolateral Side as Metabolites (2 h) [1]: None

N=C(NCCCCc1ccc(CC[C@H](NCCCN(C[C@H](O)[C@@H](O)[C@H](O)[C@H](O)CO)C[C@H](O)[C@@H](O)[C@H](O)[C@H](O)CO)C(N)=O)c2c1CCCC2)NC(=O)c1nc(Cl)c(N)nc1N [XV-dd, 3,5-diamino-N—(N-(4-(4-((S)-4-amino-3-(3-(bis((2S,3R,4R,5R)-2,3,4,5,6-pentahydroxyhexyl)amino)propylamino)-4-oxobutyl)-5,6,7,8-tetrahydronaphthalen-1-yl)butyl)carbamimidoyl)-6-chloropyrazine-2-carboxamide]
% of Apical Mass as Metabolites (2 h) [1]: None | % of Initial Apical Mass on Basolateral Side (2 h) [1]: 1.81 ± 1.6% | % on Basolateral Side as Metabolites (2 h) [1]: None

N=C(NCCCCc1ccc(C[C@H](NCCCN(C[C@H](O)[C@@H](O)[C@H](O)[C@H](O)CO)C[C@H](O)[C@@H](O)[C@H](O)[C@H](O)CO)C(N)=O)cc1)NC(=O)c1nc(Cl)c(N)nc1N [XVI-ee]
% of Initial Drug Mass on Apical Side (Parent and metabolite, 2 h) [1]: 77.7 ± 12.2% | % of Apical Mass as Metabolites (2 h) [1]: None | % of Initial Apical Mass on Basolateral Side (2 h) [1]: 14.9 ± 1.4% | % on Basolateral Side as Metabolites (2 h) [1]: None

CCCCCCN(CCCN[C@@H](Cc1ccc(CCCCNC(=N)NC(=O)c2nc(Cl)c(N)nc2N)cc1)C(N)=O)C[C@H](O)[C@@H](O)[C@H](O)[C@H](O)CO [XVII-d]
% of Initial Drug Mass on Apical Side (Parent and metabolite, 2 h) [1]: 76.6 ± 14.7% | % of Apical Mass as Metabolites (2 h) [1]: None | % of Initial Apical Mass on Basolateral Side (2 h) [1]: 1.9 ± 1.7% | % on Basolateral Side as Metabolites (2 h) [1]: None
